Legend:
[1] = tested on: OVCAR-3; test: NCI-60 screen (SRB), ovarian cancer; conditions: Homo sapiens; for IC50: OVCAR-3; for CC50: OVCAR-3, read-out: LC50
[2] = tested on: MDA-MB-231/ATCC; test: NCI-60 screen (SRB), breast cancer; conditions: Homo sapiens; for IC50: MDA-MB-231; for CC50: MDA-MB-231, read-out: LC50
[3] = tested on: UO-31; test: NCI-60 screen (SRB), renal cancer; conditions: Homo sapiens; for IC50: UO-31; for CC50: UO-31, read-out: LC50
[4] = tested on: SNB-75; test: NCI-60 screen (SRB), CNS cancer; conditions: Homo sapiens; for IC50: SNB-75; for CC50: SNB-75, read-out: LC50
[5] = tested on: DU-145; test: NCI-60 screen (SRB), prostate cancer; conditions: Homo sapiens; for IC50: DU-145; for CC50: DU-145, read-out: LC50
[6] = tested on: NCI/ADR-RES; test: NCI-60 screen (SRB), ovarian cancer; conditions: Homo sapiens; for CC50: read-out: LC50
[7] = tested on: 786-0; test: NCI-60 screen (SRB), renal cancer; conditions: Homo sapiens; for IC50: 786-0; for CC50: 786-0, read-out: LC50
[8] = tested on: MOLT-4; test: NCI-60 screen (SRB), leukemia; conditions: Homo sapiens; for IC50: MOLT-4; for CC50: MOLT-4, read-out: LC50
[9] = tested on: MDA-MB-468; test: NCI-60 screen (SRB), breast cancer; conditions: for IC50 / CC50: Homo sapiens; for IC50: MDA-MB-468; for CC50: MDA-MB-468, read-out: LC50; for lethality: MDA-MB-468, single dose 10 μM
[10] = tested on: EKVX; test: NCI-60 screen (SRB), non-small cell lung cancer; conditions: Homo sapiens; for CC50: read-out: LC50
[11] = tested on: OVCAR-5; test: NCI-60 screen (SRB), ovarian cancer; conditions: Homo sapiens; for IC50: OVCAR-5; for CC50: OVCAR-5, read-out: LC50
[12] = tested on: SK-MEL-5; test: NCI-60 screen (SRB), melanoma; conditions: Homo sapiens; for IC50: SK-MEL-5; for CC50: SK-MEL-5, read-out: LC50
[13] = tested on: ACHN; test: NCI-60 screen (SRB), renal cancer; conditions: Homo sapiens; for CC50: read-out: LC50
[14] = tested on: SK-OV-3; test: NCI-60 screen (SRB), ovarian cancer; conditions: Homo sapiens; for IC50: SK-OV-3; for CC50: SK-OV-3, read-out: LC50
[15] = tested on: K-562; test: NCI-60 screen (SRB), leukemia; conditions: Homo sapiens; for IC50: K562; for CC50: K562, read-out: LC50
[16] = tested on: CAKI-1; test: NCI-60 screen (SRB), renal cancer; conditions: Homo sapiens; for IC50: CAKI-1; for CC50: CAKI-1, read-out: LC50
[17] = tested on: 60 human cancer cell lines; test: NCI-60 screen (SRB), whole panel; format: cell-based; conditions: Homo sapiens; for IC50: five-dose screen, read-out: IC50 values against most cell lines (range); for inhibition at 10 µM: single dose 10 μM, mean over 60 cell lines, over 100% = cell death, read-out: Mean growth inhibition (GI) percentage
[18] = tested on: HCT-116; test: NCI-60 screen (SRB), colon cancer; conditions: Homo sapiens; for IC50: HCT-116; for CC50: HCT-116, read-out: LC50
[19] = tested on: A549/ATCC; test: NCI-60 screen (SRB), non-small cell lung cancer; conditions: Homo sapiens; for IC50: A549; for CC50: A549, read-out: LC50
[20] = tested on: IGROV1; test: NCI-60 screen (SRB), ovarian cancer; conditions: Homo sapiens; for IC50: IGROV-1; for CC50: IGROV-1, read-out: LC50
[21] = tested on: KM12; test: NCI-60 screen (SRB), colon cancer; conditions: Homo sapiens; for IC50: KM12; for CC50: KM12, read-out: LC50
[22] = tested on: UACC-257; test: NCI-60 screen (SRB), melanoma; conditions: Homo sapiens; for IC50: UACC-257; for CC50: UACC-257, read-out: LC50
[23] = tested on: HCT-15; test: NCI-60 screen (SRB), colon cancer; conditions: for IC50 / CC50: Homo sapiens; for IC50: HCT-15; for CC50: HCT-15, read-out: LC50
[24] = tested on: NCI-H226; test: NCI-60 screen (SRB), non-small cell lung cancer; conditions: for IC50 / CC50: Homo sapiens; for IC50: NCI-H226; for CC50: NCI-H226, read-out: LC50
[25] = tested on: CCRF-CEM; test: NCI-60 screen (SRB), leukemia; conditions: Homo sapiens; for CC50: read-out: LC50
[26] = tested on: SR; test: NCI-60 screen (SRB), leukemia; conditions: for IC50 / CC50: Homo sapiens; for CC50: read-out: LC50
[27] = tested on: RPMI-8226; test: NCI-60 screen (SRB), leukemia; conditions: Homo sapiens; for IC50: RPMI-8226; for CC50: RPMI-8226, read-out: LC50
[28] = tested on: SF-295; test: NCI-60 screen (SRB), CNS cancer; conditions: Homo sapiens; for IC50: SF-295; for CC50: SF-295, read-out: LC50
[29] = tested on: MALME-3M; test: NCI-60 screen (SRB), melanoma; conditions: Homo sapiens; for CC50: read-out: LC50
[30] = tested on: U251; test: NCI-60 screen (SRB), CNS cancer; conditions: Homo sapiens; for IC50: U-251; for CC50: U-251, read-out: LC50
[31] = tested on: RXF 393; test: NCI-60 screen (SRB), renal cancer; conditions: for IC50 / CC50: Homo sapiens; for IC50: RXF 393; for CC50: RXF 393, read-out: LC50; for lethality: RXF 393, single dose 10 μM
[32] = tested on: BT-549; test: NCI-60 screen (SRB), breast cancer; conditions: Homo sapiens; for IC50: BT-549; for CC50: BT-549, read-out: LC50
[33] = tested on: PC-3; test: NCI-60 screen (SRB), prostate cancer; conditions: Homo sapiens; for IC50: PC-3; for CC50: PC-3, read-out: LC50

Molecule COc1cc(OC)c(S(N)(=O)=O)cc1C(=O)/C=C/c1ccc(Cl)cc1 [Compound 17b, (E)-5-(3-(4-Chlorophenyl)acryloyl)-2,4-dimethoxybenzenesulfonamide] has an IC50 [1] of 3.51 µM, a CC50 [1] of 66.8 µM and an IC50 [2] of 18.9 µM. For the same molecule, the CC50 [2] was > 100 µM, the IC50 [3] was 2360 nM and the CC50 [3] was 33.1 µM. For the same molecule, the IC50 [4] was 1500 nM, the CC50 [4] was 6.95 µM and the IC50 [5] was 3.44 µM. For the same molecule, the CC50 [5] was 42.2 µM, the IC50 [6] was 3.97 µM and the CC50 [6] was > 100 µM. For the same molecule, the IC50 [7] was 1900 nM, the CC50 [7] was 9.83 µM and the IC50 [8] was 2830 nM. The CC50 [8] was > 100 µM, the IC50 [9] was 3080 nM and the CC50 [9] was 6.54 µM. For the same molecule, the lethality [9] was 57.82%, the IC50 [10] was 3.88 µM and the CC50 [10] was > 100 µM. The IC50 [11] was 3180 nM, the CC50 [11] was 39 µM and the IC50 [12] was 4.93 µM. The CC50 [12] was 43 µM, the IC50 [13] was 3.16 µM and the CC50 [13] was 33.4 µM. For the same molecule, the IC50 [14] was 2800 nM, the CC50 [14] was 35.4 µM and the IC50 [15] was 1850 nM. The CC50 [15] was > 100 µM, the IC50 [16] was 1890 nM and the CC50 [16] was 32.9 µM. For the same molecule, the IC50 [17] was 0.73 to 18.6 µM, the inhibition at 10 µM [17] was 94.1% and the IC50 [18] was 0.75 µM. The CC50 [18] was 5.13 µM, the IC50 [19] was 3170 nM and the CC50 [19] was > 100 µM. For the same molecule, the IC50 [20] was 2.95 µM, the CC50 [20] was > 100 µM and the IC50 [21] was 1820 nM. The CC50 [21] was > 100 µM, the IC50 [22] was 5.46 µM and the CC50 [22] was 71.6 µM. For the same molecule, the lethality ([23]; HCT-15, single dose 10 μM) was 41.55%, the IC50 [23] was 1460 nM and the CC50 [23] was > 100 µM. The IC50 [24] was 2.56 µM, the CC50 [24] was > 100 µM and the lethality ([24]; NCI-H226, single dose 10 μM) was 25.96%. The IC50 [25] was 1520 nM, the CC50 [25] was > 100 µM and the IC50 [26] was 2110 nM. For the same molecule, the CC50 [26] was > 100 µM, the lethality ([26]; single dose 10 μM) was 19.50% and the IC50 [27] was 1860 nM. The CC50 [27] was > 100 µM, the IC50 [28] was 3.88 µM and the CC50 [28] was 57.6 µM. For the same molecule, the IC50 [29] was 2.79 µM, the CC50 [29] was 87.4 µM and the IC50 [30] was 2180 nM. The CC50 [30] was > 100 µM, the IC50 [31] was 1620 nM and the CC50 [31] was 6.89 µM. The lethality [31] was 40.37%, the IC50 [32] was 2730 nM and the CC50 [32] was 5.97 µM. It also gave an IC50 [33] of 1600 nM and a CC50 [33] of 20.8 µM.

With COc1cc(OC)c(S(N)(=O)=O)cc1C(=O)/C=C/c1ccc(C)cc1 [Compound 17c, (E)-2,4-Dimethoxy-5-(3-(p-tolyl)acryloyl)benzenesulfonamide] the IC50 [1] was 3.05 µM, the CC50 [1] was > 100 µM and the IC50 [2] was 3.41 µM. For the same molecule, the CC50 [2] was 60 µM, the IC50 [3] was 3460 nM and the CC50 [3] was 38.1 µM. It also gave an IC50 [4] of 1840 nM, a CC50 [4] of 18.2 µM and an IC50 [5] of 4.23 µM. For the same molecule, the CC50 [5] was 65.1 µM, the IC50 [6] was 5.25 µM and the CC50 [6] was > 100 µM. The IC50 [7] was 3850 nM, the CC50 [7] was > 100 µM and the IC50 [8] was 3070 nM. For the same molecule, the CC50 [8] was > 100 µM, the IC50 [9] was 1960 nM and the CC50 [9] was 54.3 µM. For the same molecule, the lethality [9] was 36.18%, the IC50 [10] was 4.33 µM and the CC50 [10] was 43.3 µM. It also gave an IC50 [11] of 2570 nM, a CC50 [11] of 27.2 µM and an IC50 [12] of 7.81 µM. It also gave a CC50 [12] of 49.4 µM, an IC50 [13] of 3.86 µM and a CC50 [13] of 37.3 µM. The IC50 [14] was 3180 nM, the CC50 [14] was 32.5 µM and the IC50 [15] was 2430 nM. For the same molecule, the CC50 [15] was > 100 µM, the IC50 [16] was 2420 nM and the CC50 [16] was 35.2 µM. For the same molecule, the IC50 [17] was 0.54 to 11.5 µM, the inhibition at 10 µM [17] was 81.2% and the IC50 [18] was 30.6 µM. The CC50 [18] was 58 µM, the IC50 [19] was 2750 nM and the CC50 [19] was 34.8 µM. It also gave an IC50 [20] of 3.56 µM, a CC50 [20] of 72.4 µM and an IC50 [21] of 3130 nM. The CC50 [21] was > 100 µM, the IC50 [22] was 3.86 µM and the CC50 [22] was 41.9 µM. It also gave an IC50 [23] of 2560 nM, a CC50 [23] of 74.8 µM and an IC50 [24] of 4.14 µM. For the same molecule, the CC50 [24] was 90.8 µM, the IC50 [25] was 3990 nM and the CC50 [25] was > 100 µM. The IC50 [26] was 2260 nM, the CC50 [26] was > 100 µM and the IC50 [27] was 3200 nM. The CC50 [27] was > 100 µM, the IC50 [28] was 3.89 µM and the CC50 [28] was 43.2 µM. For the same molecule, the IC50 [29] was 8.55 µM, the CC50 [29] was 59.5 µM and the IC50 [30] was 2660 nM. The CC50 [30] was 32.7 µM, the IC50 [31] was 2240 nM and the CC50 [31] was 28.8 µM. The lethality [31] was 28.21%, the IC50 [32] was 2180 nM and the CC50 [32] was 31.6 µM. For the same molecule, the IC50 [33] was 3420 nM and the CC50 [33] was 55.1 µM.
